Experimental data from patent US20240415851A1, “REMODILINS TO PREVENT OR TREAT CANCER METASTASIS, GLAUCOMA, AND HYPOXIA” (The University of Chicago, priority 2019, published 2024).
Entries after “also recorded” stand apart in the source; their conditions may differ. Read-outs that look alike come from different tables or passages of the source.

Experiments:
MDA-MB-231 cells [1] = assay: Alamar blue assay (growth inhibition, cytotoxicity); assay type: cell-based, human; settings: concentrations to at least 10 uM
MDA-MB-231 cells [2] = assay: Spheroid invasion into collagen gels; assay type: cell-based, human; settings: 10 µM remodilin; 48 hrs; collagen 2 mg/mL; DMEM 0.5% FBS; vs 0.1% DMSO
Protocol: FIG. 3 MDA-MB-231 cells were grown into spheroids, then allowed to migrate into collagen gels in DMEM containing 0.5% FBS and remodilin (10 µM remodilin 39 [top row] or remodilin 83 [bottom row]) or diluent (0.1% DMSO) for 48 hrs (representative 48 hr images shown).
(§1) Remodilins 39 and 83 each slowed the invasion of triple negative MDA-MB-231 human breast cancer cells from spheroids into a surrounding collagen gel (FIG. 3), and also slowed the serum-directed invasion MDA-MB-231-derived BM1 cells through Matrigel-coated transwells (FIG. 4). Remodilins 39 and 83 also slowed the migration of MDA-MB-231 cells in a scratch wound healing assay (FIG. 5).

AKT = assay: TGFβ-induced AKT phosphorylation in fibroblasts; assay type: cell-based; settings: human fibroblasts
Source text: (§2) FIG. 12A-12B Remodilins inhibit accumulation of hypoxia-inducible factor-1 alpha (HIF1α) protein. FIG. 12A Effect of remodilin 83 on TGFβ-induced phosphorylation of AKT and ERK1/2 and TGFβ-induced HIF1α accumulation in human fibroblasts. FIG. 12B Both remodilins 39 and 83 inhibited HIF1α accumulation in HEK293 cells exposed to 6 hrs of hypoxia (1% 02).
(§3) The influence of remodilin 83 on HIF-1α accumulation in TGFβ-treated fibroblasts was examined. […] Similarly, both remodilins 39 and 83 inhibited HIF1α accumulation in HEK293 cells exposed to 6 hrs of hypoxia (1% O2; FIG. 12B). […] N—normoxia; H—hypoxia.

[3] = Tissue and plasma concentrations after single oral doses; assay type: in vivo; settings: mice
Protocol: FIG. 6 Tissue and plasma remodilin concentrations after single oral doses (filled circles 50 mg/kg; open circles-10 mg/kg). […] The greater oral bioavailability, longer half-life, and inter-tissue variation of remodilin 83 concentration are readily evident. Mean+SEM shown; n=3/condition.
(§4) The in vivo bioavailability, plasma half-life, Cmax, and area under the curve (AUC) were determined after administration of single 10 mg/kg doses of remodilins 39 and 83 to mice (Table 1). Selected tissue concentrations of remodilins 39 and 83 after single oral doses of 10 or 50 mg/kg (FIG. 6). The PK properties of these remodilins differ substantially.
(§5) PK was re-evaluated after 14 days of intraperitoneal (IP) or oral BID dosing. […] Plasma levels after single or 15 consecutive once-daily IP 10 mg/kg doses of remodilin 39 were examined (FIG. 8). The plasma concentration of 10 μM remodilin 39 corresponds to 5314 ng/mL.

[4] = Tissue concentrations after 14 d BID dosing (IP or PO); assay type: in vivo; settings: for concentration at 14 days: liver, lung, intraperitoneal
Protocol: Mean+SEM shown; n=3/condition. Dotted lines show concentration corresponding to 10 μM.
as §5
(§6) In the experiments corresponding to FIG. 7, remodilin 83 was dissolved in 20% Solutol in PBS.

HIF1α [5] = assay: TGFβ-induced HIF1α accumulation in fibroblasts; assay type: cell-based, human; settings: 48 hrs TGFβ treatment
Source text: as §2, §3

ERK1/2 = assay: TGFβ-induced ERK1/2 phosphorylation in fibroblasts; assay type: cell-based; settings: human fibroblasts
Source text: as §2, §3

HIF1α [6] = assay: Hypoxia-induced HIF1α accumulation in HEK293T cells (Western blot); assay type: cell-based; settings: 6 hrs steady hypoxia; 3 or 10 μM
Source text: FIG. 14A-14B Remodilins' effects on hypoxia-induced accumulation of HIF1α. […] FIG. 14B HIF1α was absent in cells ex-posed to 6 hrs normoxia (N).
OSA is a chronic, morbid disease affecting about 10% of the adult population, in which frequent episodes of upper airway collapse obstruct inspiratory airflow and cause IH. These episodes of IH disrupt sleep but perhaps more importantly accelerate multiple cardiometabolic abnormalities, including systemic hypertension, cardiovascular disease, stroke, and abnormal glucose metabolism. Therefore, remodilins were examined for their ability on inhibit hypoxia-induced accumulation of HIF1α, a transcription factor that mediates many of the adverse responses to IH.

Sprague Dawley rats = assay: Intermittent hypoxia (IH)-induced systemic hypertension; assay type: in vivo
Protocol: FIG. 15A-15B Remodilin's effect on hypertension and weight. […] N=2/group; DO-Day 0 (prior to IH), D11-Day 11.
Remodilins were tested for their ability to inhibit the systemic hypertension induced in rats subjected to IH in vivo.

[7] = Lipophilicity and dissolution in vehicles; assay type: physicochemical
Protocol: as §6

HIF1α [8] = assay: Hypoxia-induced HIF1α accumulation in HEK293 cells; assay type: cell-based; settings: 6 hrs steady hypoxia (1% oxygen); 3 μM or 10 µM
Source text: as §2, §3

[9] = system: human lung-derived fibroblasts; assay: TGFβ-induced myofibroblast transformation (ACTA2, FN1 protein expression); assay type: cell-based; settings: 1 ng/mL TGFβ1; 0, 1, 3, or 10 μM remodilin for 2 d; dose-dependent
Protocol: FIG. 1 Remodilins inhibit myofibroblast transformation (MFT). Serum deprived human lung-derived fibroblasts were treated with 1 ng/mL TGFβ1 (or not, left lane) and 0, 1, 3, or 10 μM remodilin for 2 d. Four remodilins each inhibited smooth muscle α-actin (ACTA2) or fibronectin-1 (FN1) protein expression (markers of MFT).

MDA-MB-231 cells [10] = assay: Scratch wound healing migration assay; assay type: cell-based, human; settings: dose-dependent; 1, 3, 10 uM; n=8 wells/condition
Protocol: Mean+SD shown; n=8 wells/condition. P<0.0001 for 1, 3, & 10 uM remodilin 39 vs DMSO (control) by 2-way ANOVA/Dunnett's.
as §1

[11] = In vivo PK and oral bioavailability, single dose; settings: mouse, plasma, wild-type mice, 10 mg/kg single dose
Protocol: as §4

[12] = system: A549 lung adenocarcinoma cells; assay: Oxygen consumption rate and extracellular acidification rate; assay type: cell-based; settings: treated at time=30 min
Protocol: FIG. 13A-13B Effect of remodilin 83 on oxygen consumption rate (OCR) and extracellular acidification rate (ECAR). FIG. 13A A549 cells were treated with remodilin 83 (open circles) or its vehicle (filled circles) at time=30 min, and oxygen consumption rate (OCR) was continuously measured over time. FIG. 13B A549 cells were treated with remodilin 83 (open circles) or its vehicle (filled circles) at time=30 min, and extracellular acidification rate (ECAR) was measured continuously over time. Cells were sequentially treated with oligomycin (ATP synthase inhibitor), FCCP (uncoupler) and antimycin A/rotenone (A+R) (complex III and I inhibitor).
A549 cells were treated with remodilin 83 (open circles) or its vehicle (filled circles) at time=30 min, and oxygen consumption rate (OCR) and extracellular acidification rate (ECAR) were measured continuously over time. Cells were sequentially treated with oligomycin (ATP synthase inhibitor), FCCP (uncoupler) and antimycin A/rotenone (A+R) (complex III and I inhibitor).

[13] = system: MDA-MB-231-derived BM1 cells; assay: 10% FBS-directed invasion through Matrigel-coated transwell membrane; assay type: cell-based, human; settings: dose-dependent; n=3/condition
Source text: FIG. 4 Remodilins 39 and 83 inhibited 10% FBS-directed invasion migration of MDA-MB-231-derived BM1 cells through a Matrigel-coated transwell mem-brane, in a dose-dependent fashion. Mean+SEM shown; n=3/condition. **P<0.01; ***P<0.001; ****P<0.0001.
as §1

CC1CN(S(=O)(=O)c2ccc(NC(=O)c3ccc(Br)c(I)c3)cc2)CCN1 (centres unmarked) [Remodilin 83, 4-Bromo-3-iodo-N-(4-((3-methylpiperazin-1-yl)sulfonyl)phenyl)benzamide]
growth inhibition or cytotoxicity by Alamar blue assay (MDA-MB-231 cells [1]): Neither remodilin is growth-inhibitory or cytotoxic | invasion of MDA-MB-231 cells from spheroids into collagen gels (MDA-MB-231 cells [2]): inhibited invasion | TGFβ-induced AKT phosphorylation (AKT): inhibited TGFβ-induced AKT phosphorylation | maintenance of tissue or plasma levels above 10 μM throughout the day ([3]; single oral doses): did not maintain tissue or plasma levels above 10 μM throughout the day | tissue distribution ([3]; single oral doses of 10 or 50 mg/kg (FIG. 6)): highly preferentially distributed to the lung | variation of tissue concentrations over the 12-hour dosing period, IP ([4]; after 14 d BID dosing, given IP): relatively steady within each tissue | variation of tissue concentrations over the 12-hour dosing period, PO ([4]; after 14 d BID dosing, given PO): greater variation over time | Brain levels ([4]; after 14 days BID dosing): low | concentration at 14 days ([4]; female, Balb/c, mouse, heart, kidney, 40 mg/kg BID IP, 14 days, read-out: levels in liver, heart, lung, and kidney): ~10 µM | mortality or gross clinical evidence of toxicity ([4]; mouse, in vivo): no mortality or gross clinical evidence of toxicity | concentration at 14 days ([4]; mouse, 14-day 40 mg/kg BID IP in 20% Solutol, female Balb/c mice, read-out: liver and lung concentrations): < 10 µM | TGFβ-induced HIF1α accumulation in human fibroblasts (HIF1α [5]): this response was absent | TGFβ-induced ERK1/2 phosphorylation (ERK1/2): not TGFβ-induced ERK1/2 phosphorylation | HIF1α accumulation in HEK293T cells exposed to hypoxia (HIF1α [6]): inhibit the accumulation of HIF1α | systemic hypertension induced by 10 days of IH (8 hrs/day) (Sprague Dawley rats; 20 mg/kg BID IP, N=2/group): blocks the systemic hypertension | health as judged by clinical observation or weight gain (Sprague Dawley rats; D0 to D11): no obvious effect on health | blood pressure in rats unexposed to IH (Sprague Dawley rats; N=2/group): little effect on blood pressure | lipophilicity / lipid solubility [7]: lipophilic; also recorded: highly lipid soluble | dissolution in 20% Solutol or DMSO ([7]; 20% Solutol or DMSO): readily dissolved | HIF1α accumulation in HEK293 cells exposed to hypoxia (HIF1α [8]): blunted HIF1α accumulation substantially | TGFβ-stimulated transformation of human lung-derived fibroblasts to myofibroblast phenotype (ACTA2 or FN1 protein expression) [9]: blunt TGFβ-stimulated transformation | migration of confluent MDA-MB-231 cells into circular scratch wound (MDA-MB-231 cells [10]): inhibited migration | bioavailability ([11]; po): 22% | AUC [11]: 1300 ng·h/mL | Cmax [11]: 0.38 µM | half-life [11]: 8.4 h | extracellular acidification rate (ECAR), marker of glycolysis [12]: decreases both mitochondrial respiration and glycolysis | oxygen consumption rate (OCR), mitochondrial respiration [12]: decreases both mitochondrial respiration and glycolysis | 10% FBS-directed invasion migration of BM1 cells through Matrigel-coated transwell membrane [13]: inhibited
